Reference: US7560473B2 (Institute of Pharmacology and Toxicology Academy of …, priority 2001, dated 2009)

How the values were obtained:
[1] = molecular target: T1, ATP-sensitive potassium channels in vascular smooth muscles (Rattus norvegicus, UniProt Q63563); assay: Association and dissociation kinetics of [^3H]glibenclamide binding in aortic rings; set-up: species or system Wistar rat; details: drug M: compound 1 10^−4, pinacidil 10^−4, ATP 10^−2, ADP 10^−3, UDP 5 × 10^−3, Ade 10^−3
T1 construct: The aorta was cut into about 3-5 mm arterial rings and the vascular endothelium was scraped off; from tissue; host or cells: endothelium-removed aortic rings of male Wistar rats
Source text: Biological activity experiment 4. Allosteric regulation of novel compounds on ATP-sensitive potassium channels in vascular smooth muscles.
To study the allosteric regulation of compound 1 on ATP-sensitive potassium channels in vascular smooth muscles, the radio-labled-ligand was used in the biological activity experiment 4.
1. The allosteric regulation of compound 1 on the binding sites for the selective KATP blocker glibenclamide in vascular smooth muscles was studied as follows: After decapitated, the male Wistar rat (340±20 g) was immediately incised open the thoracic cavity. The aorta was dissected and immersed in the 4° C. buffer containing 10 mM HEPES to wash off the blood, then carefully extirpated the fat, peripheral connective tissues and thrombus. The aorta was cut into about 3-5 mm arterial rings and the vascular endothelium was scraped off with wet tampon. The arterial rings were blotted, weighted and transferred into the tubes containing proper amount of ice colded physiological saline buffer. […] At 5,10,15,20,30,60,90 and 120 min after incubation, 9 mL ice colded Tris buffer (50 mM) was added to terminate the reaction. After washing off the free and bound [^3H]-glibenclamide, the aorta was blotted, transferred to a scintillator, added 50 uL 30% H2O2 and reacted for 2 h at 80° C. After cooling, 2.5 mL ethyl glycol and 5 mL 1% B-BPD xylene were added in sequence, kept stationary for 8 h and measured under a scintillometer for cpm value. The resulting data were fit into a regression line with In[BEQ/(BEQ-Bt)]vs.t and the parameters for association kinetics were obtained. In the disassociation kinetics experiments, the aorta treated as described above and [^3H]-glibenclamide were incubated for 60 min at 25° C., and then 30 uM glibenclamide was added. 0,5,15,30,60,90 and 120 min later, the cpm values for the complex of [^3H]-glibenclamide and KATP were measured. The resulting data were fit into a regression line with In(B/BEQ)]vs.t and the parameters for disassociation kinetics were obtained. 2. The allosteric regulation of compound 1 on the binding sites for the selective KATP activator P1075 in vascular smooth muscles was studied with the method as described above, but some conditions should be changed as follows: the incubation temperature was 37° C. instead of 25° C.;P1075 was used instead of glibenclamide; In the association kinetics experiments, the time points for sampling were 5,10,15,20,30,45,60 and 90 min, while in the disassociation kinetics experiments, that were 1,3,5,10,20,30,45 and 60 min. Biological activity experiment 5. The effects of compound 1 on the specific binding of high selective activator [^3H]P1075 with ATP-sensitive potassium channels in vascular smooth muscles.

[2] = test system: spontaneously hypertensive rats; assay: Acute antihypertensive effects in conscious spontaneously hypertensive rats; format: in vivo
Source text: Biological activity experiment 2. The acute antihypertensive effects of compound 1 in conscious spontaneously hypertensive rats.
The methods of biological activity experiment 2 were described by Long Chao-Liang et al: Long Chao-Liang, Wang Hai, Xiao Wen-Bin. Effects of pinacidil on, hypertensive vascular remodeling. Chin J Pharmacol Toxicol 1997; 11(1):42-46.

[3] = test system: rats anesthetized with pentobarbital sodium; assay: Antagonism of glibenclamide on the cardiovascular effects in anesthetized rats; format: in vivo, Wistar rats; details: for +dp/dtmax / DBP / HR / LVSP / MBP / SB / Vpm / −dp/dtmax: iv mg/kg: pinacidil 1.0, nifedipine 1.0, compound 1 0.5, means ± SE
Procedure: The methods of biological activity experiment 1 were as follows: Male Wistar rats, weighing 280±30 g were purchased from the experimental animal center of Academy of Military Medical Sciences. Rats were anesthetized with pentobarbital sodium (45 mg/kg) by peritoneal injection. A PE50 polyethylene catheter was inserted into the left ventricle through right carotid artery for cardiac function measurement with a pressure energe exchanger, wherein the signal is put into a SMUP-PC biosignal processing system. Cardiac functional parameters such as HR, LVSP, +dp/dtmax, −dp/dtmax and Vpm were recorded. Another two PE50 polyethylene catheters were inserted into the right femoral artery and vein respectively for blood pressure measurement wherein the artery cathether was linked to a four-channel physiology recorder (RM-6000) through a MPU-0.5A Type pressure energe exchanger, which recorded SBP, DBP and MBP, while the vein catheter was used for compound administration. The methods were described by Liu Wei et al: Liu Wei, Wang Hai, Xiao Wen-Bin.
The methods of Biological activity experiment 3 were the same as those described in the biological activity experiment 1.

[4] = molecular target: T1, ATP-sensitive potassium channels in vascular smooth muscles; assay: Inhibition of specific binding of [^3H]P1075 in endothelium-removed rat aorta; set-up: species or system Wistar rat
[5] = A: after administration (30 min after pinacidil, 10 min nifedipine, 15 min compound 1), glibenclamide 20 iv pretreatment
[6] = B: before administration, glibenclamide 20 iv pretreatment ten minutes

T1 sequence (Q63563 1-1545 isoform Q63563-2): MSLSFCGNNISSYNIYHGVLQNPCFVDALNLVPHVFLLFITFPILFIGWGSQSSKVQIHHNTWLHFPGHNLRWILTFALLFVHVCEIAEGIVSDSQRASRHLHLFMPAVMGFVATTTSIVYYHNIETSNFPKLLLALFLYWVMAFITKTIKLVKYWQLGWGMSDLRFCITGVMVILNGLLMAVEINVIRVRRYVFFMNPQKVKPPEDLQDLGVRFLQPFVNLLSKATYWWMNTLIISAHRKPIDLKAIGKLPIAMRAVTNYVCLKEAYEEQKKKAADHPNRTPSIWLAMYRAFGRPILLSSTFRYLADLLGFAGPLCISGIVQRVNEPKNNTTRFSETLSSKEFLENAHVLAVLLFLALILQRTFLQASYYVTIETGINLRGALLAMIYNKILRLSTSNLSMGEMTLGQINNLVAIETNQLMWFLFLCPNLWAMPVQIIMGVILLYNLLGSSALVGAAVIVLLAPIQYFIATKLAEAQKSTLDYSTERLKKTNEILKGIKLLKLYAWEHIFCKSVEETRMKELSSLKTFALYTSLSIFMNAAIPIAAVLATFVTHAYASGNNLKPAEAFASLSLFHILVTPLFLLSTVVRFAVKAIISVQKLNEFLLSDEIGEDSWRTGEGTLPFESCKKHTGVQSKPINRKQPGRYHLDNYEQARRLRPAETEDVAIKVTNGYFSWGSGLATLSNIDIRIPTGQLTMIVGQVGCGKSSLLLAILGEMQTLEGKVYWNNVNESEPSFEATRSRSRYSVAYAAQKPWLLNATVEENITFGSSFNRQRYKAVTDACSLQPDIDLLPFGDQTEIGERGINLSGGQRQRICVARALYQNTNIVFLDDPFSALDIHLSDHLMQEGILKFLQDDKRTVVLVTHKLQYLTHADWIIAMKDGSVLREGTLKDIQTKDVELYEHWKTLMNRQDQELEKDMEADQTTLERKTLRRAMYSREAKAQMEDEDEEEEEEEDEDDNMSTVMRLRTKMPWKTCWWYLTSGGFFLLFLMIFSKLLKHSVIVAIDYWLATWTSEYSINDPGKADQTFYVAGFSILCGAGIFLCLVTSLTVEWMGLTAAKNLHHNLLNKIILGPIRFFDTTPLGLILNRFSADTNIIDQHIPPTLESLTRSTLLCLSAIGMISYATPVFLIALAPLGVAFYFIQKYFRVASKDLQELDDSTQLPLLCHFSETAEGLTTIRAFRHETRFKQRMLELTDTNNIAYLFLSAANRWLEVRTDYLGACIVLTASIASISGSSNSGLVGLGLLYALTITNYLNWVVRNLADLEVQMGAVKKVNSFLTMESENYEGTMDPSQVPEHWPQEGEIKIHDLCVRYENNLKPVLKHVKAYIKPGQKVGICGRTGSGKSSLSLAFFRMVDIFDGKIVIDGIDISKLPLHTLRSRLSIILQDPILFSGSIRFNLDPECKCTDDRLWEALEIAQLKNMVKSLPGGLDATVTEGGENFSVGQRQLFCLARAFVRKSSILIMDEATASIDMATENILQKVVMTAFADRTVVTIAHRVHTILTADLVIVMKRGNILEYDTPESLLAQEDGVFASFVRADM
T1 sequence (Q63664 whole entry partner): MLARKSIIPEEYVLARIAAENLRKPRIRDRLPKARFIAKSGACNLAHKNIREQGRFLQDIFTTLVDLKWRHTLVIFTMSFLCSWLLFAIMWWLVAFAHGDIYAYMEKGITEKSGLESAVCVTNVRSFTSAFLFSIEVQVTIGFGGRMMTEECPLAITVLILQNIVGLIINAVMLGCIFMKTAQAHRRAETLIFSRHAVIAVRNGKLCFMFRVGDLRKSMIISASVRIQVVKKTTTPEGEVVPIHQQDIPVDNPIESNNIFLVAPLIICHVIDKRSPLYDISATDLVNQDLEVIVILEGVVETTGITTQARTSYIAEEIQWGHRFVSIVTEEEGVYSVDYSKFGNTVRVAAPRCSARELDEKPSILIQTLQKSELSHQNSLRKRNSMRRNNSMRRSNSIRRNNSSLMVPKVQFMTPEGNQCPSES

CC(C)NC(C)(C)C(C)C [compound 1, N-(1-methylethyl)-2,3-dimethyl-2-butylamine]
Dissociation kinetics k2 of [^3H]glibenclamide binding ([1]; 25° C., control 0.72 ± 0.11): 1.02 ± 0.14 ×10^2 nM^−1 · min^−1 | Dissociation kinetics Kd of [^3H]glibenclamide binding in presence of the drug ([1]; Kd of the radioligand, not of the drug, control 0.55 ± 0.14): 1.64 ± 0.69 nM | Association kinetics k1 of [^3H]glibenclamide binding ([1]; [^3H]-glibenclamide 3 nM, 25° C., control 1.31 ± 0.14): 0.62 ± 0.25 ×10^−2nM^−1 · min^−1 | Association kinetics kobs of [^3H]glibenclamide binding ([1]; [^3H]-glibenclamide 3 nM, 25° C., control 4.65 ± 0.37, means ± SD, n = 4~10): 2.90 ± 0.74 ×10^−2nM^−1 · min^−1 | Association kinetics kA of [^3H]glibenclamide binding ([1]; [^3H]-glibenclamide 3 nM, 25° C., control 181.90 ± 46.90): 61.04 ± 25.89 ×10^−2nM^−1 · min^−1 | SBP at 1 h after administration ([2]; 1 h, po mg/kg: compound 1 3, pinacidil 3, nifedipine 10, bisoprolol 60, captopril 40, means ± SD, 9-13 rats): 227 ± 12 mmHg | heart rates at 1 h ([2]; 1 h, po mg/kg: compound 1 3, pinacidil 3, nifedipine 10, bisoprolol 60, captopril 40, means ± SD, 9-13 rats, in bpm (unit assumed)): 414 ± 27 | SBP at 3 h after administration ([2]; 3 h, po mg/kg: compound 1 3, pinacidil 3, nifedipine 10, bisoprolol 60, captopril 40, means ± SD, 9-13 rats): 218 ± 7 mmHg | heart rates at 3 h ([2]; 3 h, po mg/kg: compound 1 3, pinacidil 3, nifedipine 10, bisoprolol 60, captopril 40, means ± SD, 9-13 rats, in bpm (unit assumed)): 412 ± 27 | SBP at 5 h after administration ([2]; 5 h, po mg/kg: compound 1 3, pinacidil 3, nifedipine 10, bisoprolol 60, captopril 40, means ± SD, 9-13 rats): 215 ± 15 mmHg | heart rates at 5 h ([2]; 5 h, po mg/kg: compound 1 3, pinacidil 3, nifedipine 10, bisoprolol 60, captopril 40, means ± SD, 9-13 rats, in bpm (unit assumed)): 408 ± 25 | SBP at 9 h after administration ([2]; 9 h, po mg/kg: compound 1 3, pinacidil 3, nifedipine 10, bisoprolol 60, captopril 40, means ± SD, 9-13 rats): 229 ± 8 mmHg | heart rates at 9 h ([2]; 9 h, po mg/kg: compound 1 3, pinacidil 3, nifedipine 10, bisoprolol 60, captopril 40, means ± SD, 9-13 rats, in bpm (unit assumed)): 407 ± 21 | SBP at 12 h after administration ([2]; 12 h, po mg/kg: compound 1 3, pinacidil 3, nifedipine 10, bisoprolol 60, captopril 40, means ± SD, 9-13 rats): 243 ± 7 mmHg | heart rates at 12 h ([2]; 12 h, po mg/kg: compound 1 3, pinacidil 3, nifedipine 10, bisoprolol 60, captopril 40, means ± SD, 9-13 rats, in bpm (unit assumed)): 413 ± 15 | SBP at 24 h after administration ([2]; 24 h, po mg/kg: compound 1 3, pinacidil 3, nifedipine 10, bisoprolol 60, captopril 40, means ± SD, 9-13 rats): 244 ± 9 mmHg | heart rates at 24 h ([2]; 24 h, po mg/kg: compound 1 3, pinacidil 3, nifedipine 10, bisoprolol 60, captopril 40, means ± SD, 9-13 rats, in bpm (unit assumed)): 417 ± 12 | SBP base value ([2]; base value before administration, po mg/kg: compound 1 3, pinacidil 3, nifedipine 10, bisoprolol 60, captopril 40, means ± SD, 9-13 rats): 246 ± 11 mmHg | heart rates base value ([2]; base value before administration, po mg/kg: compound 1 3, pinacidil 3, nifedipine 10, bisoprolol 60, captopril 40, means ± SD, 9-13 rats, in bpm (unit assumed)): 419 ± 20 | duration of antihypertensive action ([2]; oral administration, spontaneously hypertensive rats): 9 h | +dp/dtmax [3, 5]: 672 ± 36 kPa/a | DBP [3, 5]: 77 ± 9 mmHg | HR [3, 5]: 357 ± 18 bpm | LVSP [3, 5]: 133 ± 6 mmHg | MBP [3, 5]: 86 ± 9 mmHg | SB [3, 5]: 105 ± 10 mmHg | Vpm [3, 5]: 2.7 ± 03 /a | −dp/dtmax [3, 5]: 507 ± 39 kPa/a | +dp/dtmax [3, 6]: 978 ± 54 kPa/a | DBP [3, 6]: 98 ± 7 mmHg | HR [3, 6]: 394 ± 13 bpm | LVSP [3, 6]: 180 ± 10 mmHg | MBP [3, 6]: 110 ± 7 mmHg | SB [3, 6]: 134 ± 8 mmHg | Vpm [3, 6]: 3.3 ± 0.2 /a | −dp/dtmax [3, 6]: 819 ± 56 kPa/a | antagonism of the cardiovascular effects by glibenclamide (in words) ([3]; glibenclamide 20 mg/kg iv pretreatment): could be antagnized by glibenclamide | IC50 ([4]; [^3H] P1075 5 nmol L^−1, 90 minutes at 37° C., endothelium-removed rat aorta): 355 ± 53.7 nM | Ki ([4]; [^3H] P1075 5 nmol L^−1, 90 minutes at 37° C., endothelium-removed rat aorta, read-out: pKi for inhibition of specific binding of [^3H]P1075 (converted)): 355 nM | competitive inhibition of [^3H] P1075 binding, times weaker than that of P1075 ([4]; relative to P1075): 39 times | competitive inhibition of [^3H] P1075 binding, times stronger than that of glibenclamide ([4]; relative to glibenclamide): 166 times | competitive inhibition of [^3H] P1075 binding, times weaker than that of pinacidil ([4]; relative to pinacidil): 1.8 times
